These results are taken from ChEMBL document CHEMBL3784916, “Synthesis and anticancer activity of novel fluorinated asiatic acid derivatives” (Eur J Med Chem, 2016).

The subject of data set [1] is HT-29. Put plainly: Cytotoxicity against human HT-29 cells after 72 hrs by MTT assay. Type of data set: functional, cell-based. Particulars: HT-29, 72 h. On the technique in general: Formazan colour is commonly taken as a measure of viable cells.
Data set [2] relates to HeLa. Put plainly: Cytotoxicity against human HeLa cells after 72 hrs by MTT assay. Type of data set: functional, cell-based.
For data set [3], the system named is Jurkat. Put plainly: Cytotoxicity against human Jurkat cells after 72 hrs by XTT assay. Type of data set: functional, cell-based.
Data set [4] relates to PC-3. Put plainly: Cytotoxicity against human PC3 cells after 72 hrs by MTT assay. Format: functional, cell-based.
For data set [5], the system named is MCF7. Put plainly: Cytotoxicity against human MCF7 cells after 72 hrs by MTT assay. Type of data set: functional, cell-based.
Data set [6] has as its system MIA PaCa-2. Put plainly: Cytotoxicity against human MIAPaCa2 cells after 72 hrs by MTT assay. Type of data set: functional, cell-based.
The test system of data set [7] is A-375. Put plainly: Cytotoxicity against human A375 cells after 72 hrs by MTT assay. Type of data set: functional, cell-based.
In data set [8] the test system is BJ. Put plainly: Cytotoxicity against human BJ cells after 72 hrs by MTT assay. Format: cell-based. The following applies: human, bj.

pIC50: −log10 of the molar value.

As a reminder, the pIC50 is the IC50 on a negative log10 scale, so that one unit is a factor of ten. For `COC(=O)[C@H](C)N1C(=O)[C@]23CC[C@@H](C)[C@H](C)[C@H]2[C@]12[C@H](F)C[C@@H]1[C@@]4(C)C[C@@H](OC(C)=O)[C@H](OC(C)=O)[C@@](C)(COC(C)=O)[C@@H]4CC[C@@]1(C)[C@]2(C)CC3`, the pIC50 in data set [1] is 5.20; in data set [2], 5.40. Also, the Activity result in data set [3], in data set [4], in data set [5], in data set [6], in data set [7] and in data set [8] was “Dose-dependent effect” in each case.
In the case of `C[C@H]1[C@H](C)CC[C@@]23CC[C@]4(C)[C@](OC2=O)([C@H](F)C[C@@H]2[C@@]5(C)C[C@@H](O)OC[C@](C)(C=O)[C@@H]5CC[C@]24C)[C@H]13`, the pIC50 in data set [1] was 4.95; in data set [2], 5.13. For the same compound, the Activity result in data set [3], in data set [4], in data set [5], in data set [6], in data set [7] and in data set [8] was “Dose-dependent effect” throughout.
Consider `CC(=O)OC[C@@]1(C)[C@@H]2CC[C@]3(C)[C@H](C[C@@H](F)[C@]45OC(=O)[C@@]6(CC[C@@H](C)[C@H](C)[C@H]64)CC[C@]53C)[C@@]2(C)C[C@@H](OC(C)=O)[C@@H]1OC(C)=O`, for which the pIC50 is 5.20 in data set [1] and 5.35 in data set [2]. The Activity result in data set [3], in data set [4], in data set [5], in data set [6], in data set [7] and in data set [8] was “Dose-dependent effect” throughout.
Consider `CNC(=O)[C@]12CC[C@@H](C)[C@H](C)[C@H]1C1=CC[C@@H]3[C@@]4(C)C[C@@H](OC(C)=O)[C@H](OC(C)=O)[C@@](C)(COC(C)=O)[C@@H]4CC[C@@]3(C)[C@]1(C)CC2`, for which the pIC50 in data set [2] was 5.96. Further, the Activity result in data set [3], in data set [4], in data set [5], in data set [6], in data set [7] and in data set [8] was “Dose-dependent effect” each time.
Regarding `COC(=O)[C@H](C)NC(=O)[C@]12CC[C@@H](C)[C@H](C)[C@H]1C1=CC[C@@H]3[C@@]4(C)C[C@@H](OC(C)=O)[C@H](OC(C)=O)[C@@](C)(COC(C)=O)[C@@H]4CC[C@@]3(C)[C@]1(C)CC2`, in data set [2], the negative logarithm of the IC50 (pIC50) was 5.97. The Activity entry in data set [3], in data set [4], in data set [5], in data set [6], in data set [7] and in data set [8] was “Dose-dependent effect” each time.
Take `C[C@H]1[C@H](C)CC[C@@]23CC[C@]4(C)[C@](OC2=O)([C@H](F)C[C@@H]2[C@@]5(C)C(C=O)=C[C@@](C)(COC(=O)n6ccnc6)[C@@H]5CC[C@]24C)[C@H]13`: the pIC50 in data set [1] is 5.63; in data set [2] it was 5.79. In addition, the Activity entry in data set [3], in data set [4], in data set [5], in data set [6], in data set [7] and in data set [8] was “Dose-dependent effect” throughout.
For the compound `C[C@H]1[C@H](C)CC[C@@]23CC[C@]4(C)[C@](OC2=O)([C@H](F)C[C@@H]2[C@@]5(C)CC(=O)[C@H](O)[C@@](C)(CO)[C@@H]5CC[C@]24C)[C@H]13`, the negative logarithm of the IC50 (pIC50) in data set [1] is 4.63; in data set [2], 4.61. Further, the Activity result in data set [3], in data set [4], in data set [5], in data set [6], in data set [7] and in data set [8] was “Dose-dependent effect” each time.
Turning to `CC(=O)OC[C@@]1(C)[C@@H]2CC[C@]3(C)[C@H](CC=C4[C@@H]5[C@@H](C)[C@H](C)CC[C@]5(C(N)=O)CC[C@]43C)[C@@]2(C)C[C@@H](OC(C)=O)[C@@H]1OC(C)=O`, in data set [2], the pIC50 is 5.78. The Activity entry in data set [3], in data set [4], in data set [5], in data set [6], in data set [7] and in data set [8] was “Dose-dependent effect” throughout.
In turn, `CC(=O)OC[C@@]1(C)[C@@H]2CC[C@]3(C)[C@H](C[C@@H](F)[C@]45OC(=O)[C@@]6(CC[C@@H](C)[C@H](C)[C@H]64)CC[C@]53C)[C@@]2(C)CC(=O)[C@@H]1OC(C)=O` had a pIC50 in data set [2] of 4.93. Besides, the Activity entry in data set [3], in data set [4], in data set [5], in data set [6], in data set [7] and in data set [8] was “Dose-dependent effect” each time.
As for `C[C@H]1[C@H](C)CC[C@@]23CC[C@]4(C)[C@](OC2=O)([C@H](F)C[C@@H]2[C@@]5(C)C(C#N)=C[C@@](C)(CO)[C@@H]5CC[C@]24C)[C@H]13`, the pIC50 in data set [2] was 5.12. The Activity result in data set [3], in data set [4], in data set [5], in data set [6], in data set [7] and in data set [8] was “Dose-dependent effect” throughout.
`CC(=O)OC[C@@]1(C)[C@@H]2CC[C@]3(C)[C@H](CC=C4[C@@H]5[C@@H](C)[C@H](C)CC[C@]5(C(=O)O)CC[C@]43C)[C@@]2(C)C[C@@H](OC(C)=O)[C@@H]1OC(C)=O` had a pIC50 in data set [2] of 5.21. Moreover, the Activity entry in data set [3], in data set [4], in data set [5], in data set [6], in data set [7] and in data set [8] was “Dose-dependent effect” each time.
With `COC(=O)CNC(=O)[C@]12CC[C@@H](C)[C@H](C)[C@H]1C1=CC[C@@H]3[C@@]4(C)C[C@@H](OC(C)=O)[C@H](OC(C)=O)[C@@](C)(COC(C)=O)[C@@H]4CC[C@@]3(C)[C@]1(C)CC2`, the pIC50 in data set [2] is 6.01. Further, the Activity entry in data set [3], in data set [4], in data set [5], in data set [6], in data set [7] and in data set [8] was “Dose-dependent effect” each time.
